{"source": "patent US7892549B2", "about": "“Treatment with anti-ErbB2 antibodies” (Genentech, Inc., priority 1997, dated 2011)", "system": "metastatic breast cancer with overexpression of the ErbB2 (HER2) oncogene", "experiment": "Randomized clinical study of chemotherapy with or without HERCEPTIN in patients", "format": "in vivo, human", "description": "Beginning on day 7, patients received weekly administration of 2 mg/kg antibody (i.v.) over a 90-minute period.\nThe patients received one of two chemotherapy regiments for a minimum of six cycles, provided their disease was not progressing: a) cyclophosphamide and doxorubicin or epirubicin (AC), if patients have not received anthracycline therapy in the adjuvant setting, or b) paclitaxel (T, TAXOL®), if patients have received any anthracycline therapy in the adjuvant setting. […] Subsequent doses of the antibody were given immediately before chemotherapy administration, if the initial dose of the antibody was well tolerated. If the first dose of the antibody was not well tolerated, subsequent infusions continued to precede chemotherapy administration by 24 hours. Patients were permitted to continue receiving chemotherapy beyond six cycles if, in the opinion of the treating physician, they were continuing to receive treatment benefit.\nCyclophosphamide (600 mg/m^2) was given either by iv push over a minimum period of 3 minutes or by infusion over a maximum period of 2 hours. […]\nTime to disease progression (TTP) was calculated from the beginning of therapy to progression. Confidence limits for response rates were calculated using the exact method for a single proportion."}
{"smiles": "CC(=O)O[C@H]1C(=O)[C@@]2(C)[C@H]([C@H](OC(=O)c3ccccc3)[C@]3(O)C[C@H](OC(=O)[C@H](O)[C@@H](NC(=O)c4ccccc4)c4ccccc4)C(C)=C1C3(C)C)[C@]1(OC(C)=O)CO[C@@H]1C[C@@H]2O", "note": "[T, paclitaxel]", "values": [{"measurement": "syndrome of myocardial dysfunction similar to that observed with anthracyclines", "setting": "Grade ¾", "result": 0, "unit": "%"}, {"measurement": "AE(%), overall severe adverse events", "setting": "median follow-up 10.5 months", "result": 59, "unit": "%"}]}
